Assay results taken from PMC3496398 (Molecular pharmaceutics, 2010).
“Also recorded” adds a separate entry of the source.

Columns and labels:
[1] = rat, in vivo; cited from earlier work
Caco-2 cell monolayers = assay: Caco-2 cell monolayer transport assay; format: in vitro ADME; settings: apical pH 6.5 to basolateral pH 7.4, 0 mM HNAP
rat jejunum = assay: Rat jejunal single-pass perfusion assay; format: in vivo; settings: for rat jejunal Peff in the absence of HNAP: drug perfused alone, 0 mM HNAP
Octanol-buffer = settings: Log PAB versus cLog P of free drug
[2] = system: influenza virus neuraminidase; settings: influenza virus neuraminidase inhibitor; cited from earlier work
[3] = in humans; cited from earlier work

Structure (SMILES) | Caco-2 Papp in the absence of HNAP (Caco-2 cell monolayers) | rat jejunal Peff in the absence of HNAP (rat jejunum) | increase of log P by ion-pairing with HNAP compared to the free drug (Octanol-buffer) [units] | further results
CC(=O)N[C@H]1[C@H]([C@H](O)[C@H](O)CO)OC(C(=O)O)=C[C@@H]1N=C(N)N [ZNV, Zanamivir] | – | – | – | percent of oral dose absorbed (%F) [1]: 4%
CCOC(=O)C1=C[C@@H](OC(CC)CC)[C@H](NC(C)=O)[C@@H](NC(=N)N)C1 [GO, (3R,4R,5S)-ethyl-4-acetamido-5-guanidino-3-(pentan-3-yloxy)cyclohex-1-enecarboxylate] | no detectable transport | No effective permeability; also recorded: Essentially zero | 3.7 | change of rat jejunal Peff on co-perfusion with HNAP (rat jejunum; co-perfusion with 12 mM HNAP versus drug alone): failed to increase; also recorded: no significant increase
CCC(CC)O[C@@H]1C=C(C(=O)O)C[C@H](NC(=N)N)[C@H]1NC(C)=O [active carboxylate of GO] | – | – | – | IC50 [2]: 0.9 nM
CCOC(=O)C1=C[C@@H](OC(CC)CC)[C@H](NC(C)=O)[C@@H](N)C1 [OSV, oseltamivir] | – | – | – | oral absorption [3]: 60–80%
CCCCCCCOC(=O)C1=C[C@H](NC(=N)N)[C@@H](NC(C)=O)[C@H]([C@H](O)[C@H](O)CO)O1 [ZHE, 5-Acetamido-2,6-anhydro-4-(guanidino)-3,4,5-trideoxy-D-glycero-D-galcto-non-2-enonic acid heptyl ester] | no detectable transport | essentially zero | 1.2 | rat jejunal Peff at 4 mM HNAP (rat jejunum; 4 mM HNAP): 21 ×10⁻⁶ cm/s; rat jejunal Peff at 10 mM HNAP (rat jejunum; 10 mM HNAP): 40 ×10⁻⁶ cm/s
